Assay results: patent US4518789A, “Phenyl alpha-acyloxyacetamide derivatives and their therapeutic use” (priority 1983, dated 1985)

Columns and labels:
[1] = tested on: itch provoked by papain or histamine dihydrochloride; test: Anti-pruritic effect on normal human skin (papain or histamine induced itch); type: in vivo; details: 2 to 5% topical, normal human adult volunteers
Protocol: Itch provoking pruritic compositions were prepared as follows: papain 0.5% solution was prepared by dissolving papain 50 mg in 10 ml of saline, and histamine 0.2% solution was prepared by dissolving histamine dihydrochloride 20 mg in 10 ml of saline. Itching was provoked or induced as follows: a pruritic composition in a volume of 0.05 ml containing papain or histamine dihydrochloride as a pruritic agent was topically applied on the flexor forearm of normal human adult volunteers and the skin site was gently pricked rapidly through the solution with a 26-gauge needle to the level of the papillary dermis as described by Bernstein et al. (J. E. Bernstein, R. M. Swift, K. Soltani and A. L. Lorincz: Antipruritic Effect of an Opiate Antagonist, Naloxone Hydrochloride in Journal of Investigative Dermatology 78, 82-83, 1982). This technique provoked or induced itch sensation at the test skin site within a few minutes following the topical application of the pruritic composition. After itch sensation had been induced a composition containing 2 to 5% N-ethyl phenyl-alpha-acetoxyacetamide, N-phenethyl phenyl-alpha-acetoxyacetamide or other phenyl-alpha-acyloxyacetamide derivatives of the instant invention was topically applied on the pruritic skin site. The vehicle alone cream containing no active ingredient was used as a control.

[2] = tested on: calming or quieting behaviour; test: Tranquilizing effect, topical administration in hairless mice; type: in vivo; details: 5% solution topical
Protocol: Hairless mice, ten in each group, were used in this study. N-phenethyl phenyl-alpha-acetoxyacetamide, N-ethyl phenyl-alpha-acetoxyacetamide or other phenyl-alpha-acyloxyacetamide derivative of the instant invention was prepared as a 5% solution in acetone: water, 8:2 or ethanol:water, 8:2. A test solution was topically applied to the left dorsal skin of hairless mice. The same topical applications were repeated three times at 30 minute intervals. A vehicle alone solution containing acetone and water or ethanol and water was used as a control. For the next 8 hours and also 24 hours later all mice were carefully observed and examined for any signs or evidence of calming or quieting effects caused by the test compound.
Normally when a mouse is picked up by the tail with thumb and forefinger the mouse struggles trying to free itself; and if the mouse is placed on a horizontal metallic grid uniformly spaced at 8 mm, the mouse nervously pulls itself across the grid, again trying to free itself from the restraining grip of the fingers.
If during the above observation period the mouse behaved the same before and after the topical treatment when picked up by the tail and placed on the metallic grid, the test compound was determined to have no significant tranquilizing effect by topical administration.

Row | Compound | Anti-pruritic Effect [1] | tranquilizing effect [2]
1 | CCNC(=O)C(OC(C)=O)c1ccccc1 (stereo not drawn) [N-ethyl phenyl-alpha-acetoxyacetamide] | substantial anti-pruritic effect | no detectable signs of sedation
2 | CC(=O)OC(C(=O)NCCc1ccccc1)c1ccccc1 (stereo not drawn) [N-phenethyl phenyl-alpha-acetoxyacetamide] | substantial anti-pruritic effect | marked degrees of tranquilizing effect
